The subject of this test is leptin-deficient (ob/ob) mice. Kind of test: body weight study in leptin-deficient (ob/ob) mice, 56 days. In kind it is in vivo, mouse. The method, then: Therefore, ob/ob mice are a predictive in vivo model for these indications. This example provides results of a study of DA plus another compound (CQL) on body weight in leptin-deficient (ob/ob) mice. Vehicle group (N=14) were treated with distilled water by gavage BID, and DA (N=14) at a dose of 50 mg/kg by gavage BID. The study period was for 56 days+2-3 days testing period afterward. Body weight change measured 3X per week, food intake was measure twice per week, metabolic biomarkers (blood glucose, blood insulin, blood HbA1c, HDL, LDL, triglyceride and bile acid) were measured at beginning and end of study. Cytokine analysis was measured at end on Day 56.

[1] abbreviates: DA 50 mg/kg BID, day 56, no significant difference.
[2] abbreviates: DA 50 mg/kg gavage BID, 56 days.
Setting [3] is: DA 50 mg/kg gavage BID, compared to vehicle.

The results in this text go back to patent publication US20220193013A1, “Pharmaceutical Composition for Treatment or Prevention of Multiple Inflammatory Disorders” (priority 2020, published 2022).

For the compound `CC(=O)[O-].CC[N+](CC)(CC(=O)Nc1c(C)cccc1C)Cc1ccccc1` [DA, denatonium acetate], under setting [1], the “IL-1β level, decreased by, compared to the vehicle group” value was 19.1%; the “IL-6 level, decreased by, compared to the vehicle group” value was 61.4%; the “MCP-1 level, decreased by, compared to the vehicle group” value was 20.9%; the “RANTES level, decreased by, compared to the vehicle group” value is on record as 1.7%. For the same compound, under “DA 50 mg/kg BID, day 56, p=0.026”, the “MIG (versus controls)” value is on record as “significant decreases”. Moreover, for the setting “DA 50 mg/kg BID, day 56, p=0.047”, the “Eotaxin (versus controls)” value is on record as “significant decreases”. Further, the “serum HDL levels” value (DA 50 mg/kg gavage BID) is on record as “no significant effects”. In addition, under setting [2], the body weight result is listed as “no significant effect”, the daily food consumption entry is recorded as “no significant effect”, the “serum HBA1c levels” value is “no significant effect” and the serum glucose levels result is “significantly decreased”. Under setting [2], the serum insulin levels result was “no significant effect”. Besides, under setting [3], the “serum LDL levels” value is listed as “significantly lowered”, the “serum bile acids levels” value is “significantly increased” and the serum triglyceride levels entry is on record as “significantly lowered”.
